{"source": "patent US20240226041A1", "about": "“METHODS AND COMPOSITIONS FOR TREATMENT OF NEUROPATHIC PAIN USING STAT3 INHIBITORS” (priority 2021, published 2024)", "key": {"male C57BL/6 mice [1]": {"tested_on": "male C57BL/6 mice", "test": "Cisplatin model of chemotherapy-induced peripheral neuropathy (CIPN), von Frey mechanical allodynia", "assay_type": "in vivo, mouse", "settings": "50 mg/kg i.p. every other day", "method": "(§1) Data were analyzed by two-way ANOVA repeated measures. Time: P<0.001; Group: P<0.001; Interaction P<0.001. **P<0.01 Tukey multiple comparison test. Data are from a representative experiment out of two with similar results.\nMale C57/B16 mice (n=4 per group) were treated with cisplatin (two rounds of 5 daily doses of 2.3 mg/kg i.p. followed by 5 days of rest). […] Data were analyzed by two-way ANOVA repeated measures. Time: P<0.001; Group: P<0.001; Interaction P<0.01. **P<0.01 Tukey multiple comparison test.\n(§2) Peripheral neuropathy has been observed with several small-molecule STAT3 inhibitors in clinical-stage development (Bendell et al., 2014; Genini et al., 2017; Ogura et al., 2015). […] This model was selected because it was shown previously that it is mediated by mitochondrial damage in the peripheral nervous system (Krukowski et al., 2017; Maj, Ma, Krukowski, Kavelaars & Heijnen, 2017). […] (FIG. 12).\n(§3) Pain measurements and chemotherapy-induced peripheral neuropathy (CIPN)."}, "DRG neurons": {"tested_on": "DRG neurons", "test": "Example 7: DRG neuron Ca2+ flux and electrical activity, CCI mice", "assay_type": "cell-based, mouse", "settings": "CCI mice with and without TTI-101 treatment", "method": "Spontaneous electrical activity is assessed ex vivo using multi-electrode array recording for 3 days in vitro."}, "[2]": {"test": "Glutathione reaction study (UV-HPLC stability with GSH)", "assay_type": "physicochemical", "settings": "100 μM in 50 mM HEPES pH 7.5, 10 mM GSH, 50 minutes after exposure", "method": "The AUC of each compound measured at the times indicated by UV-HPLC and expressed as percent of the starting AUC of the peaks. Data are representative of four independently performed experiments.\nEach reaction mixture was sampled at time 0 and every 5 minutes for 50 minutes; all samples were analyzed by HPLC. The amount of unreacted inhibitor was determined by measuring the area under the curve (AUC) and plotting this value as a percentage of the starting AUC as a function of time (FIG. 3). […] In contrast, there was no loss of TTI-101 in the presence of GSH.\nGlutathione reaction studies. STAT3 inhibitors (10 ul of 10 mM stock in DMSO) were spiked into reaction buffer [50 mM HEPES pH7.5 containing 10 mM reduced glutathione (GSH)] the samples were mixed thoroughly and placed in an autosampler set at 20° C. The reactions were monitored by high performance liquid chromatography (HPLC) using an Exion LC Sciex unit equipped with a UV detector. The stationary phase used was a C18 Synergi™ 4 μm Fusion-RP 80 Å LC column (50×2 mm); the mobile phase was water (A) and acetonitrile (B). The elution process consisted of an isocratic step with 20% mobile phase B, followed by 80% B, for 2 minutes. The flow rate was maintained at 0.5 mL/min during the run. Measurements were conducted at intervals of 5 minutes for a period of 55 minutes total. The presence of the STAT3 inhibitors were quantified by calculating the area under the curves (AUCs) of the compound peaks at 260-295 nm."}, "rats": {"tested_on": "rats", "settings": "rat, in vivo; cited from earlier work"}, "male C57BL/6 mice [3]": {"tested_on": "male C57BL/6 mice", "test": "Mechanical sensitivity (von Frey) in mice given TTI-101 alone", "assay_type": "in vivo, mouse", "settings": "50 mg/kg i.p. every other day, 7 doses", "method": "as §1, §2, §3"}, "mice": {"tested_on": "mice", "test": "Example 6: mouse chronic constriction injury (CCI) model", "assay_type": "in vivo", "method": "CCI surgery is carried out in mice. Analgesia is limited to perioperative administration of buprenorphine SR (0.05 mg/kg SQ). […] Animals then are examined for behavioral pain sensitivity. All experiments are performed by observers blinded to the drug formulation administered. This is done from baseline (8 weeks)—prior to nerve injury—then weekly thereafter until 16 weeks of age. […] Anticoagulated blood is used to measure levels of pro- and anti-inflammatory cytokines. One portion of each SN and DRG is snap-frozen and another portion placed in formalin, then paraffin imbedded (FFPE). Cryotome sections of the snap-frozen tissue are used to generate protein lysates for measurement of pY-STAT3, IL-1B, and IL-6 by Luminex, and RNA for RNA-seq analysis. […] Microtome sections of FFPE blocks are H&E stained and undergo immunohistochemistry staining and scoring for pY-STAT3, CD68 (macrophages), PGP9.5 (sensory nerves) and GAP43 (regenerating nerves). Detection of oxidative stress in sciatic nerve and DRG via IHC for nitrotyrosine or 4-hydroxynonenal adducts and MnSOD is carried out. In a subset of mice, characterization of SN and DRG macrophage phenotype is analyzed using flow cytometry with conjugated antibodies against CD86, F4/80, CD163 and CD206."}, "[4]": {"settings": "100 mg/kg oral gavage daily for 5 days"}}, "note": "“Also recorded” adds a separate entry of the source.", "data": [{"smiles": "COc1ccc(S(=O)(=O)Nc2cc(-c3c(O)ccc4ccccc34)c(O)c3ccccc23)cc1", "note": "[TTI-101]", "values": [{"measurement": "dose after which maximal inhibition of allodynia was obtained", "setting": "male C57BL/6 mice [1]", "result": "after the 4th dose"}, {"measurement": "time after last dose at which mechanical allodynia returned to levels of cisplatin alone", "setting": "male C57BL/6 mice [1]; 7 doses", "result": 4, "unit": "days"}, {"measurement": "cisplatin-induced mechanical allodynia", "setting": "male C57BL/6 mice [1]; 7 doses, after two cycles of cisplatin 2.3 mg/kg", "result": "markedly reduced; also recorded: reverses mechanical allodynia caused by cisplatin"}, {"measurement": "spontaneous activity and baseline cytosolic Ca2+ concentration in DRGs ipsilateral to injury", "setting": "DRG neurons", "result": "reverses the elevated spontaneous activity and baseline cytosolic Ca^2+ concentration"}, {"measurement": "loss of inhibitor in the presence of GSH", "setting": "[2]", "result": "no loss"}, {"measurement": "serious toxicity including lactic acidosis", "setting": "rats", "result": "did not demonstrate any serious toxicity including lactic acidosis"}, {"measurement": "mechanical sensitivity / mechanical allodynia caused by compound alone", "setting": "male C57BL/6 mice [3]", "result": "had no effect on mechanical sensitivity; also recorded: does not cause mechanical allodynia"}, {"measurement": "antalgic gait patterns/burrowing aversion", "setting": "mice; [4]", "result": "net reduction"}, {"measurement": "macrophage infiltration of the sciatic nerve", "setting": "mice; [4]", "result": "net reduction"}, {"measurement": "mechanical and thermal hypersensitivity", "setting": "mice; [4]", "result": "net reduction"}, {"measurement": "plasma and tissue levels / pY-STAT3 in macrophages in SN and DRG", "setting": "mice; [4]", "result": "achieves levels in the plasma and tissue adequate to reduce levels of pY-STAT3"}, {"measurement": "pain hyper-sensitivity at 8 weeks post-CCI", "setting": "mice; 8 weeks post-CCI", "result": "sustained reversal"}]}]}
